From patent US20240240189A1, “CANCER TREATMENT BY TARGETING PROTEINS OR INTERACTIONS OF EPHRINB-RGS3-KIF20A-SEPT7 AXIS” (CITY OF HOPE, priority 2021, published 2024)
“Also recorded” adds a separate entry of the source.

What was measured:
[1] = test system: human KIF20A transcript; experiment: shRNA screening by dual luciferase reporter assay; format: cell-based; settings: transfected HEK293 cells, shRNA in pNUT vector, cDNA target in psi-CHECK, 48 hours
Procedure: FIGS. 10a-10c show generation of human KIF20A shRNAs and stable Daoy cell lines. […] Candidate shRNAs in pNUT vector were first screened with a cDNA target cloned in psi-CHECK vector in transfected HEK293 cells, using a dual luciferase reporter assay and their cDNA target in psi-CHECK Vector (Promega). Six candidate shKIF20As were tested with this assay. […] Data are mean±S.D. **P<0.01, ***P<0.001 (two-way ANOVA).
DNA Constructs, Lentivirus Production: Lentiviral transfer plasmids used in this study include: Hiv7CMV-Cre-myc-2A-GFP (Addgene #117148), Hiv7CMV-GFP, Hiv7CMV-GFP-IRES-Luciferase, as well as Tet-on inducible shRNA plasmids Tet-pLKO-hushKIF20A726 or Tet-pLKO-hushKIF20A181-Puro (shRNA sequences were cloned into pLKO-Tet-On plasmid, Addgene #21915 at Agel/EcoRI sites). […]
shRNA design and screening: Potential shRNA sequences were selected using web-based design tool (rnaidesigner.thermofisher.com/rnaiexpress/design.do). shRNAs were expressed under the control of a mouse U6 promoter in pNUTs vector which additionally contains a ubiquitin promoter-EGFP expression cassette. Candidate shRNAs in pNUTs and cDNA target in psi-CHECK were co-transfected into HEK293 cells in triplicates; 48 hours later, the firefly and Renilla Luciferase values were determined with Promega's Dual-Luciferase® Reporter Assay System (Promega, E1910). […]

[2] = test system: Daoy cells; experiment: Intracranial Daoy tumor transplantation in NSG mice, bioluminescence imaging and survival; format: in vivo, mouse; settings: Daoy Clone #2 in cerebellum of NSG mice
Description: Expression of the two factors was highly correlated. […] Tumor growths were monitored by bioluminescence imaging. Doxycycline treatment started at four weeks after initial cell implantation (indicated with a red font and line). The treatment group of mice was first given doxycycline by gavage for two consecutive days and was then fed with doxycycline-containing food for the entire duration of the experiment.
Intracranial tumor transplantation and Bioluminescence imaging: NSG mice (8-10 weeks old) were anesthetized with isoflurane and oxygen and placed under microscope. […] The transplanted mice were then monitored weekly with luciferase-based bioluminescence imaging for tumor growth. […] Tumor growths in two mice groups were monitored weekly by bioluminescence imaging. Survivals of mice after cell transplantation were recorded and analyzed.
To examine the function of KIF20A in tumor formation by Daoy cells, 10^5 Clone #2 cells were injected into the cerebellum of each recipient NSG mouse using a method previously described^22. Growth of tumor cells was then monitored by bioluminescence imaging. […] The mice were then kept on doxycycline-containing food continuously and were monitored for tumor growth by bioluminescence imaging.

5′-GAGGAGTGTCTACATCGAA-TTCAAGAGA-TTCGATGTAGACACTCCTC-3′ (GAGGAGTGTCTACATCGAATTCAAGAGATTCGATGTAGACACTCCTC; hairpin, further chemistry not given here) [shKIF20A726, shRNA targeting human KIF20A transcript]
inhibition of expression of the human KIF20A transcript (luciferase assay) [1]: significantly inhibit expression of the human KIF20A transcript
brain tumor growth (bioluminescence imaging) ([2]; doxycycline from four weeks after implantation vs untreated): significantly slower growth of brain tumors; also recorded: inhibited tumor growth
survival (Kaplan-Meier) ([2]; doxycycline treatment vs untreated): better overall survival
